From US10954210B2, “Crystal form of tipifarnib and preparation method and pharmaceutical composition thereof” (Hangzhou SoliPharma Co., Ltd., priority 2016, dated 2021)
“Also recorded” adds a separate entry of the source.

Key:
Type in all cases: physicochemical
[1] = Phase and chemical stability experiments (10 days storage, XRD and purity); conditions: for Form (10 days test results): by XRD; for crystalline form after storage / purity change after storage: 10 days at 60° C. dry condition and 40° C./75% RH condition
Procedure: (§1) Instruments and characterization methods: • X-ray powder diffraction (XRPD): performed on Bruder D8 Advance diffractometer. The samples were tested at room temperature under the following conditions: scan range 3-40° 2θ, step size 0.02° 2θ, and speed 0.2 s/step.

[2] = Slurry experiment in water (stirred 3 days at room temperature, XRD); conditions: stirred in water at room temperature for 3 days, by XRD
Procedure: as §1

[3] = Dynamic vapor sorption / isothermal sorption
Procedure: Dynamic vapor sorption data and isothermal sorption data were collected on TA Instruments Q5000 TGA. Method: place 1 mg to 10 mg sample into a platinum pan; the weight change of the sample during the change in relative humidity from 0% to 80% to 0% was measured.

| SMILES | Purity (%) (10 days test results) ([1]; 40° C./75% RH) | Form (10 days test results) ([1]; 40° C./75% RH) | Purity (%) (10 days test results) ([1]; 60° C./drying) | Form (10 days test results) ([1]; 60° C./drying) | crystalline form after storage [1] | purity change after storage [1] | Test results: crystalline form after stirring in water [2] | Test results: crystalline form after stirring in water ([2]; listed as Tipifarnib Form III) | Test results: crystalline form after stirring in water ([2]; listed as Tipifarnib Form A) | Test results: crystalline form after stirring in water ([2]; listed as Tipifarnib Form IV) | Test results: crystalline form after stirring in water ([2]; listed as Tipifarnib Form II) | Test results: crystalline form after stirring in water ([2]; listed as Tipifamib Form I) | weight change (isothermal sorption plot) ([3]; between 20 to 80% RH) | hygroscopicity ([3]; isothermal sorption plot, 20 to 80% RH) |
| --- | --- | --- | --- | --- | --- | --- | --- | --- | --- | --- | --- | --- | --- | --- |
| Cn1cncc1[C@@](N)(c1ccc(Cl)cc1)c1ccc2c(c1)c(-c1cccc(Cl)c1)cc(=O)n2C [Form III, (R)-6-(amino(4-chlorophenyl)(1-methyl-1H-imidazol-5-yl)methyl)-4-(3-chlorophenyl)-1-methyl-2(1H)-quinolinone] | 99.80 | Tipifarnib Form III | 99.80 | Tipifarnib Form III | remained their original forms; also recorded: remained its original form | essentially did not decrease; also recorded: essentially did not change | remained unchanged | Tipifarnib Form III |  |  |  |  |  |  |
| Cn1cncc1[C@@](N)(c1ccc(Cl)cc1)c1ccc2c(c1)c(-c1cccc(Cl)c1)cc(=O)n2C [Form A, (R)-6-(amino(4-chlorophenyl)(1-methyl-1H-imidazol-5-yl)methyl)-4-(3-chlorophenyl)-1-methyl-2(1H)-quinolinone, reference compound] |  |  |  |  |  |  | transformed to tipifanib Form I |  | Tipifarnib Form I |  |  |  |  |  |
| Cn1cncc1[C@@](N)(c1ccc(Cl)cc1)c1ccc2c(c1)c(-c1cccc(Cl)c1)cc(=O)n2C [Form IV, (R)-6-(amino(4-chlorophenyl)(1-methyl-1H-imidazol-5-yl)methyl)-4-(3-chlorophenyl)-1-methyl-2(1H)-quinolinone] | 99.73 | Tipifarnib Form IV | 99.85 | Tipifarnib Form IV | remained their original forms; also recorded: remained its original form | essentially did not decrease; also recorded: essentially did not change | remained unchanged |  |  | Tipifarnib Form IV |  |  |  |  |
| Cn1cncc1[C@@](N)(c1ccc(Cl)cc1)c1ccc2c(c1)c(-c1cccc(Cl)c1)cc(=O)n2C [Form II, (R)-6-(amino(4-chlorophenyl)(1-methyl-1H-imidazol-5-yl)methyl)-4-(3-chlorophenyl)-1-methyl-2(1H)-quinolinone] | 99.86 | Tipifarnib Form II | 99.84 | Tipifarnib Form II | remained their original forms; also recorded: remained its original form | essentially did not decrease; also recorded: essentially did not change | remained unchanged |  |  |  | Tipifarnib Form II |  |  |  |
| Cn1cncc1[C@@](N)(c1ccc(Cl)cc1)c1ccc2c(c1)c(-c1cccc(Cl)c1)cc(=O)n2C [Form I, (R)-6-(amino(4-chlorophenyl)(1-methyl-1H-imidazol-5-yl)methyl)-4-(3-chlorophenyl)-1-methyl-2(1H)-quinolinone] | 99.61 | Tipifarnib Form I | 99.72 | Tipifarnib Form I | remained its original form; also recorded: remained their original forms | essentially did not change; also recorded: essentially did not decrease | remain unchanged |  |  |  |  | Tipifamib Form I | less than 0.2% | not hygroscopic |
